The values below come from article PMC11938129, “Gravacin as an inhibitor of the auxin transport-activating protein kinase D6PK in Arabidopsis” (Frontiers in Plant Science, 2025).

Test [1] has as its target T1, D6PK (His-D6PK) (Arabidopsis thaliana, UniProt Q9FG74).
T1 construct: His-tagged recombinant D6PK, expressed in E. coli BL21 (DE3), Ni-NTA purified
T1 sequence (Q9FG74 1-498): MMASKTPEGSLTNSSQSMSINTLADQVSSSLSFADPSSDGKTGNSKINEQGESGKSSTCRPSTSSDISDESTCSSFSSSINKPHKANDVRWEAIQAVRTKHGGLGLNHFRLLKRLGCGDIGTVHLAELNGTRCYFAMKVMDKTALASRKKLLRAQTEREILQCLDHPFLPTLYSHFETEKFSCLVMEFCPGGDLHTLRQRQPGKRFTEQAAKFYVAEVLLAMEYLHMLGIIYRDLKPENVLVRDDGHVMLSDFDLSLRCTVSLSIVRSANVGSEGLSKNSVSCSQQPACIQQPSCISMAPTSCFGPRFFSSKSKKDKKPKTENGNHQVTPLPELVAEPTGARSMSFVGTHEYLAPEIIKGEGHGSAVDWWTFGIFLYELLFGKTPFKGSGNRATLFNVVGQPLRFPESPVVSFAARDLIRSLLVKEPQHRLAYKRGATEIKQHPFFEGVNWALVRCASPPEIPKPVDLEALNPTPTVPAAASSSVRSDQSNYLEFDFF
The test is described as follows: surface plasmon resonance (Biacore 8K), steady state affinity model. Format: binding.

Test [2] deals with T1, D6PK (His-D6PK). The experiment in a line: in vitro kinase assay, […]ATP autoradiography of His-PIN1-HL phosphorylation. Format: biochemical. Particulars: partial, dose-dependent inhibition; substrate His-PIN1-HL; 10 mM ATP (so in the source), 10 mM MgCl2, 1 mM DTT, Tris-HCl pH 7.5, 25 °C, 60 min.

pKd: −log10 of the molar value.

The pKd is −log10 of the Kd, conventionally taken in molar units. High values mean a low Kd, low ones a high Kd. The compound `O=C(O)C=Cc1ccc(-c2ccc(Cl)c(Cl)c2)o1` [gravacin, 3-(5-[3,4-dichlorophenyl]-2-furyl)-acrylic acid] showed a negative-log Kd (pKd) on D6PK (His-D6PK) [1] of roughly 3.48. In addition, the “in vitro kinase assay, [32P]ATP autoradiography of His-PIN1-HL phosphorylation” value on D6PK (His-D6PK) [2] was “His-D6PK-induced phosphorylation of His-PIN1 was partially suppressed by gravacin in a dose-dependent manner”.
